The structures appear in SMILES notation. pIC50: −log10 of the molar value.

Among the data in US20090136448A1, “Antiviral 2-Carboxy-Thiophene Compounds” (priority 2005, published 2009) are IC50 values, retold here.

Assay [1] deals with HCV replication, genotype 1a (Huh-7 HCV replicon cell). Put plainly: Replicon ELISA cell based assay, genotype 1a. The note with it: Hepatitis C virus, Huh-7 HCV replicon cells, 72 hours, mean, assayed at least twice. The protocol:
(§1) Replicon ELISA Cell Based Assay
(§2) 100 μL of medium containing 10% FCS were added to each well of clear, flat-bottomed 96 well microplates, excepting wells in the top row. Test compound was diluted in assay medium to twice the final required starting concentration from a 40 mM stock solution in DMSO. 200 μL of the starting dilution were introduced into two wells each in the top row and doubling dilutions made down the plate by the sequential transfer of 100 μL aliquots with thorough mixing in the wells; the final 100 μL were discarded. The two bottom rows were not used for compound dilutions. Huh-7 HCV replicon cell monolayers nearing confluency were stripped from growth flasks with versene-trypsin solution and the cells were resuspended in assay medium at either 2×10^5 cells/mL (sub-line 5-15; genotype 1b; Lohmann, V., Korner, F., Koch, J-O., Herian, U., Thielmann, L. and Bartenschlager, R., Science, 1999, 285, 110-113) or at 3×10^5 cells/mL (genotype 1a; Gu, B., Gates, A. T., Isken, O., Behrens, S. E. and Sarisky, R. T., J. Virol., 2003, 77, 5352-5359). 100 μL of cell suspension were added to all wells and the plates incubated at 37° C. for 72 hours in a 5% CO2 atmosphere.
(§3) Following incubation, the assay medium was aspirated from the plates. The cell sheets were washed by gentle immersion in phosphate buffered saline (PBS), which was then aspirated off, and fixed with acetone:methanol (1:1) for 5 minutes. Following a further wash with PBS, 100 μL of ELISA diluent (PBS+0.05% v/v Tween 20+2% w/v skimmed milk powder) were added to all wells and the plates incubated at 37° C. for 30 minutes on an orbital platform. The diluent was removed and each well then received 50 μL of a 1/200 dilution of anti-HCV specific, murine, monoclonal antibody (either Virostat #1872 or #1877), except for wells in one of the compound-free control rows which received diluent alone to act as negative controls. The plates were incubated at 37° C. for 2 hours and washed 3 times with PBS/0.05% Tween 20, then 50 μL of horseradish peroxidase conjugated, anti-mouse, rabbit polyclonal serum (Dako #P0260), diluted 1/1000, were added to all wells. The plates were incubated for a further hour, the antibody removed and the cell sheets washed 5 times with PBS/Tween and blotted dry. The assay was developed by the addition of 50 μL of ortho-phenylenediamine/peroxidase substrate in urea/citrate buffer (SigmaFast, Sigma #P-9187) to each well, and colour allowed to develop for up to 15 minutes. The reaction was stopped by the addition of 25 μL per well of 2 M sulphuric acid and the plates were read at 490 nm on a Fluostar Optima spectrophotometer.
(§4) The substrate solution was removed and the plates were washed in tap water, blotted dry and the cells stained with 5% carbol fuchsin in water for 30 minutes. The stain was discarded and the cell sheets washed, dried and examined microscopically to assess cytotoxicity.
(§5) The absorbance values from all compound-free wells that had received both primary and secondary antibodies were averaged to obtain a positive control value. The mean absorbance value from the compound-free wells that had not received the primary antibody was used to provide the negative (background) control value. The readings from the duplicate wells at each compound concentration were averaged and, after the subtraction of the mean background from all values, were expressed as a percentage of the positive control signal. The quantifiable and specific reduction of expressed protein detected by the ELISA in the presence of a drug can be used as a measure of replicon inhibition. GraFit software (Erithacus Software Ltd.) was used to plot the curve of percentage inhibition against compound concentration and derive the 50% inhibitory concentration (IC50) for the compound.
A general note: In antiviral work, replicon cells carry a viral genome segment that copies itself.

Assay [2] relates to HCV replication, genotype 1b (Huh-7 HCV replicon cell, sub-line 5-15). As to the kind of experiment: Replicon ELISA cell based assay, genotype 1b. The note with it: Hepatitis C virus, Huh-7 HCV replicon cells, genotype 1b (sub-line 5-15), 72 hours, mean, assayed at least twice. The protocol:
as §1, §2, §3, §4, §5

As usually defined, the pIC50 is −log10 of the IC50, conventionally taken in molar units. With `CC(C)N(c1cc(-c2ccccc2)sc1C(=O)O)C(=O)[C@H]1CC[C@H](C)CC1` [Compound A, 5-Phenyl-3-[[(trans-4-methylcyclohexyl)carbonyl](1-methylethyl)amino]-2-thiophenecarboxylic acid, reference compound], the results for the pIC50 in assay [1] and in assay [2] were 5.30 to 6.00 and 6.30 to 7.00, respectively.

Take `CC(C)N(c1cc(-c2ccc(Cl)cc2)sc1C(=O)O)C(=O)[C@H]1CC[C@H](C)CC1` [Compound B, 5-(4-Chlorophenyl)-3-[[(trans-4-methylcyclohexyl)carbonyl](1-methylethyl)amino]-2-thiophenecarboxylic acid, reference compound]: the negative-log IC50 (pIC50) in assay [1] and in assay [2] was 5.30 to 6.00 in each case.

For `CC(C)N(c1cc(-c2ccc(-c3ccc(Cl)cc3)cc2)sc1C(=O)O)C(=O)[C@H]1CC[C@H](C)CC1` [Compound C, 5-(4′-Chloro-4-biphenylyl)-3-[[(trans-4-methylcyclohexyl)carbonyl](1-methylethyl)amino]-2-thiophenecarboxylic acid, reference compound], the pIC50 was 5.30 to 6.00 in assay [1] and below 5.30 in assay [2].

As to `CC(C)N(c1cc(-c2ccc(C#N)cc2)sc1C(=O)O)C(=O)[C@H]1CC[C@H](C)CC1` [Compound D, 5-(4-Cyanophenyl)-3-[[(trans-4-methylcyclohexyl)carbonyl](1-methylethyl)amino]-2-thiophenecarboxylic acid, reference compound], the pIC50 in assay [1] and in assay [2] was 5.30 to 6.00 each time.

For `CC(=O)c1ccc(-c2cc(N(C(=O)[C@H]3CC[C@H](C)CC3)C(C)C)c(C(=O)O)s2)cc1` [Compound E, 5-(4-Acetylphenyl)-3-[[(trans-4-methylcyclohexyl)carbonyl](1-methylethyl)amino]-2-thiophenecarboxylic acid, reference compound], the pIC50 in assay [1] and in assay [2] was 5.30 to 6.00 each time.

`CC(C)N(C(=O)c1ccc(Cl)cc1Cl)c1cc(-c2ccc(-c3nnn[nH]3)cc2)sc1C(=O)O` [Compound F, 3-[[(2,4-Dichlorophenyl)carbonyl](1-methylethyl)amino]-5-[4-(1H-tetrazol-5-yl)phenyl]-2-thiophenecarboxylic acid, reference compound]: the figures for the pIC50 in assay [1] and in assay [2] were 5.30 to 6.00 and below 5.30, respectively.

Consider `CC(C)N(c1cc(-c2ccc(-c3cc4ncccc4o3)cc2)sc1C(=O)O)C(=O)[C@H]1CC[C@H](C)CC1` [Example 1, 5-(4-Furo[3,2-b]pyridin-2-ylphenyl)-3-[[(trans-4-methylcyclohexyl)carbonyl](1-methylethyl)amino]-2-thiophenecarboxylic acid], for which the pIC50 in assay [1] and in assay [2] was 7.30 to 8.00 throughout.

With `CC(C)N(c1cc(-c2ccc(-c3cc4ncccn4n3)cc2)sc1C(=O)O)C(=O)[C@H]1CC[C@H](C)CC1` [Example 2, 3-[[(trans-4-Methylcyclohexyl)carbonyl](1-methylethyl)amino]-5-(4-pyrazolo[1,5-a]pyrimidin-2-ylphenyl)-2-thiophenecarboxylic acid], the negative logarithm of the IC50 (pIC50) in assay [1] and in assay [2] was 7.30 to 8.00 in each case.

As for `CC(C)N(c1cc(-c2ccc(-c3cn4ccccc4n3)cc2)sc1C(=O)O)C(=O)[C@H]1CC[C@H](C)CC1` [Example 3, 5-(4-Imidazo[1,2-a]pyridin-2-ylphenyl)-3-[[(trans-4-methylcyclohexyl)carbonyl](1-methylethyl)amino]-2-thiophenecarboxylic acid], the pIC50 in assay [1] is 7.00 to 7.30; in assay [2], 7.30 to 8.00.

Turning to `CC(C)N(c1cc(-c2ccc(-c3cn4ccsc4n3)cc2)sc1C(=O)O)C(=O)[C@H]1CC[C@H](C)CC1` [Example 4, 5-(4-Imidazo[2,1-b][1,3]thiazol-6-ylphenyl)-3-[[(trans-4-methylcyclohexyl)carbonyl](1-methylethyl)amino]-2-thiophenecarboxylic acid], the figures for the pIC50 in assay [1] and in assay [2] were 7.00 to 7.30 and 7.30 to 8.00, respectively.

For `Cc1cc(N)n2nc(-c3ccc(-c4cc(N(C(=O)[C@H]5CC[C@H](C)CC5)C(C)C)c(C(=O)O)s4)cc3)cc2n1` [Example 5, 5-[4-(7-Amino-5-methylpyrazolo[1,5-a]pyrimidin-2-yl)phenyl]-3-[[(trans-4-methylcyclohexyl)carbonyl](1-methylethyl)amino]-2-thiophenecarboxylic acid], the pIC50 in assay [1] and in assay [2] was above 8.30 in each case.

For `Cc1ccn2nc(-c3ccc(-c4cc(N(C(=O)[C@H]5CC[C@H](C)CC5)C(C)C)c(C(=O)O)s4)cc3)cc2n1` [Example 6, 3-[[(trans-4-Methylcyclohexyl)carbonyl](1-methylethyl)amino]-5[4-(5-methylpyrazolo[1,5-a]pyrimidin-2-yl)phenyl]-2-thiophenecarboxylic acid], the pIC50 in assay [1] is 7.00 to 7.30; in assay [2], 7.30 to 8.00.

On to `CC(C)N(c1cc(-c2ccc(-c3cc4nccc(N)n4n3)cc2)sc1C(=O)O)C(=O)[C@H]1CC[C@H](C)CC1` [Example 7, 5-[4-(7-Aminopyrazolo[1,5-a]pyrimidin-2-yl)phenyl]-3-[[(trans-4-methylcyclohexyl)carbonyl](1-methylethyl)amino]-2-thiophenecarboxylic acid], for which the pIC50 in assay [1] and in assay [2] was above 8.30 in each case.

With `CC(C)N(c1cc(-c2ccc(-c3nc4ncccc4o3)cc2)sc1C(=O)O)C(=O)[C@H]1CC[C@H](C)CC1` [Example 8, 3-[[(4-Methylcyclohexyl)carbonyl](1-methylethyl)amino]-5-(4-[1,3]oxazolo[4,5-b]pyridin-2-ylphenyl)-2-thiophenecarboxylic acid], the pIC50 in assay [1] and in assay [2] was 7.30 to 8.00 each time.

Turning to `CC(C)N(c1cc(-c2ccc(-c3cnc4occc4c3)cc2)sc1C(=O)O)C(=O)[C@H]1CC[C@H](C)CC1` [Example 9, 5-(4-Furo[2,3-b]pyridin-5-ylphenyl)-3-[[(trans-4-methylcyclohexyl)carbonyl](1-methylethyl)amino]-2-thiophenecarboxylic acid], the pIC50 in assay [1] was 6.30 to 7.00; in assay [2] it was 7.00 to 7.30.

As for `CC(C)N(c1cc(-c2ccc(-c3nc4cc(N)ccc4o3)cc2)sc1C(=O)O)C(=O)[C@H]1CC[C@H](C)CC1` [Example 10, 5-[4-(5-Amino-1,3-benzoxazol-2-yl)phenyl]-3-[[(trans-4-methylcyclohexyl)carbonyl](1-methylethyl)amino]-2-thiophenecarboxylic acid], the pIC50 in assay [1] was 7.00 to 7.30; in assay [2], 6.30 to 7.00.

Take `CC(C)N(c1cc(-c2ccc(-c3nc4cccnc4o3)cc2)sc1C(=O)O)C(=O)[C@H]1CC[C@H](C)CC1` [Example 11, 3-[[(4-Methylcyclohexyl)carbonyl](1-methylethyl)amino]-5-(4-[1,3]oxazolo[5,4-b]pyridin-2-ylphenyl)-2-thiophenecarboxylic acid]: the negative-log IC50 (pIC50) in assay [1] and in assay [2] was 6.30 to 7.00 each time.

On to `CC(C)N(c1cc(-c2ccc(-c3cc4cnccc4o3)cc2)sc1C(=O)O)C(=O)[C@H]1CC[C@H](C)CC1` [Example 12, 5-(4-Furo[3,2-c]pyridin-2-ylphenyl)-3-[[(trans-4-methylcyclohexyl)carbonyl](1-methylethyl)amino]-2-thiophenecarboxylic acid], for which the pIC50 is 6.30 to 7.00 in assay [1] and 7.00 to 7.30 in assay [2].

On to `CC(C)N(c1cc(-c2ccc(-c3cc4cnccc4o3)cc2)sc1C(=O)O)C(=O)[C@H]1CC[C@H](C)CC1` [Example 13, Sodium 5-(4-furo[3,2-c]pyridin-2-ylphenyl)-3-[[(trans-4-methylcyclohexyl)carbonyl](1-methylethyl)amino]-2-thiophenecarboxylate], for which the pIC50 in assay [1] and in assay [2] was 6.30 to 7.00 each time.
